Measurements as given in US20220162215A1, “COMPOSITIONS AND METHODS OF USING THE SAME FOR TREATMENT OF NEURODEGENERATIVE AND MITOCHONDRIAL DISEASE” (MITOKININ, INC., priority 2019, published 2022).
Read-outs that look alike come from different tables or passages of the source.

Key:
[1] = test system: HeLa MKYP cells; assay: Human mitophagy assay (HeLa MKYP, mtKeima FACS, FCCP/oligomycin); type: cell-based; conditions: for activation at 6.3 µM / Potency at 1 μM F/O toxin: % activation of mitophagy at 6.3 μM treatment of the compound; for Potency at 1 μM F/O toxin: Table 1
Method: Briefly, HeLa MKYP cells were plated at 10,000 cells/well in 96 well plates along with compounds at various concentrations. Following 16 hrs of incubation, cells were treated with 1 uM FCCP/oligomycin for 6 hours, then analyzed via FACS for the presence of mitochondria in lysosomes (as determined by an emissions spectrum shift from the pH-sensitive mtKeima tag). Examples are shown in FIG. 1 through FIG. 13 below.

[2] = test system: HeLa MKYP cells; assay: Toxicity / cell death measured by DAPI staining (take-up); type: cell-based; conditions: 50 μM; for Toxicity (% positive for DAPI take-up at 50 μM)*: Table 3 Supplement A; for Toxicity (% positive for DAPI take-up @ 50 μM): Table 1
Method: H2O2 treatment was performed as a control for cell death as measured by DAPI staining.
Briefly, HeLa MKYP cells were plated at 10,000 cells/well in 96 well plates along with compounds at various concentrations. Following 16 hrs of incubation, cells were treated with 1 uM FCCP/oligomycin for 6 hours, then analyzed via FACS for the presence of mitochondria in lysosomes (as determined by an emissions spectrum shift from the pH-sensitive mtKeima tag).

[3] = Homo sapiens, HeLa, Table 3, read-out: Potency at 1 μM F/O toxin* (EC50 of mitophagy activation)
[4] = Homo sapiens, HeLa, Table 3 Supplement A, as measured in Table 3, read-out: Potency (EC50 Max Mitophagy) (μM)*
[5] = Homo sapiens, HeLa, 6 h, Table 3, read-out: Potency at 1 μM F/O toxin*

Row | SMILES | EC50 [1, 3] | Toxicity (% positive for DAPI takeup @ 50 μM) ([2]; Table 3) | EC50 [1, 4] | Toxicity (% positive for DAPI take-up at 50 μM)* [2] | other results
1 | c1coc(CNc2ncnc3[nH]c(C4CCC4)nc23)c1 [Compound 30] | > 50 µM | 3.0% |  |  | 
2 | C[C@@H](Nc1nccc2[nH]cnc12)c1ccccc1 [Compound 64] | > 50 µM | 7.6% | > 25 µM | 7.63% | 
3 | FC(F)(F)c1cc2c(NCc3cccc(Cl)c3)ncnc2[nH]1 [Compound 25] |  | 20.3% |  |  | activation at 6.3 µM [1, 5]: 49.9%
4 | FC(F)(F)c1cc2c(NC3CCN(Cc4ccccc4)CC3)ncnc2[nH]1 [Compound 78] | 21.4 µM | 43.9% | 21.4 µM | 43.86% | 
5 | C[C@@H](Nc1ncnc2[nH]cnc12)c1ccccc1 [Compound 63] |  | 11.5% |  |  | EC50 ([1]; Table 3, read-out: Potency at 1 μM F/O toxin* (EC50 of mitophagy activation)): 47.4 µM; EC50 ([1]; Table 3 Supplement A, as measured in Table 3, read-out: Potency (EC50 Max Mitophagy) (μM)*): > 25 µM; Toxicity (% positive for DAPI take-up at 50 μM)* ([2]; listed as EP-0036422): 11.51%
6 | OC[C@@H](Nc1ncnc2[nH]c(C(F)(F)F)cc12)c1ccccc1 [Compound 77] | 4.4 µM | 30.3% | 4.41 µM | 30.27% | 
7 | CC(CNc1ncnc2[nH]cnc12)c1ccccc1 (centres unmarked) [Compound 65] | 3.6 µM | 28.9% | 3.61 µM | 28.92% | 
8 | CCCCNc1ncnc2[nH]c(C)cc12 [Compound 8] |  |  |  |  | Potency at 1 μM F/O toxin [1]: 43.4%; Toxicity (% positive for DAPI take-up @ 50 μM) [2]: 15.4%
9 | FC(F)(F)c1cc2c(NCc3cncnc3)ncnc2[nH]1 [Compound 49] | 11.7 µM |  |  |  | Toxicity (% positive for DAPI takeup @ 50 μM) ([2]; human): 23.0%
10 | CN1CC[C@H](Nc2ncnc3[nH]c(C(F)(F)F)cc23)c2ccccc21 [Compound 80] | 1.9 µM | 28.1% | 1.81 µM | 8.7% | 
11 | C[C@H](Nc1ncnc2[nH]c(C3CC3)nc12)c1ccccc1 [Compound 46] | 3.2 µM | 27.6% | 3.17 µM | 27.61% | 
12 | COc1ccc(CNc2ncnc3[nH]c(C(F)(F)F)cc23)c(OC)c1 [Compound 51] | 2.1 µM | 42.6% |  |  | 
13 | FC(F)(F)c1cc2c(NC3COCc4ccccc43)ncnc2[nH]1 (centres unmarked) [Compound 34] | > 50 µM | 42.9% |  |  | 
14 | FC(F)(F)c1cc2c(NC3CCCc4ccccc43)ncnc2[nH]1 (centres unmarked) [Compound 32] | > 50 µM | 27.1% |  |  | 
15 | COc1ncccc1CNc1ncnc2[nH]c(C(F)(F)F)cc12 [Compound 22] |  | 7.6% |  |  | activation at 6.3 µM [1, 5]: 18.5%
16 | FC(F)(F)c1cc2c(N[C@H]3COc4ccccc43)ncnc2[nH]1 [Compound 39] | 1.4 µM | 22.8% | 1.49 µM | 27.32% | 

Row | SMILES | EC50 [1, 3] | Toxicity (% positive for DAPI takeup @ 50 μM) ([2]; Table 3) | EC50 [1, 4] | Toxicity (% positive for DAPI take-up at 50 μM)* [2] | other results
17 | CCCCNc1ncnc2[nH]c(C(OCC)C(F)(F)F)cc12 (centres unmarked) [Compound 3] |  |  |  |  | Potency at 1 μM F/O toxin [1]: 25.9%; Toxicity (% positive for DAPI take-up @ 50 μM) [2]: 15.8%
18 | COc1cc(CNc2ncnc3[nH]c(C4CC4)nc23)ccn1 [EP-0036032, 8-cyclopropyl-N-[(2-methoxy-4-pyridyl)methyl]-9H-purin-6-amine] |  |  | > 25 µM | 7.06% | 
19 | CCCCNc1ncnc2[nH]c(C3CCC3)nc12 [EP-0035339, N-butyl-8-cyclobutyl-9H-purin-6-amine] |  |  | > 25 µM | 6.13% | 
20 | FC(F)(F)c1cc2c(NCc3ccncn3)ncnc2[nH]1 [Compound 20] |  | 1.5% |  |  | activation at 6.3 µM [1, 5]: 7.9%
21 | CCCCNc1ncnc2[nH]c(C(OCC)C(F)(F)F)cc12 (centres unmarked) [Compound 5] |  |  |  |  | Potency at 1 μM F/O toxin [1]: 17.9%; Toxicity (% positive for DAPI take-up @ 50 μM) [2]: 47.4%
22 | CCCCNc1ncnc2[nH]c(C3CC3)nc12 [Compound 29] | 18.8 µM | 16.2% |  |  | 
23 | Cc1nc2c(N[C@@H](C)c3ccccc3)ncnc2[nH]1 [Compound 74] | 4.6 µM | 31.9% | 4.65 µM | 31.93% | 
24 | FC(F)(F)c1cc2c(NC3COc4ccccc43)ncnc2[nH]1 (centres unmarked) [Compound 13] |  |  |  |  | activation at 1.6 µM ([1]; Homo sapiens, HeLa, 6 h, Table 2, % activation of mitophagy at 1.6 μM treatment of the compound, read-out: Potency at 1 μM F/O toxin*): 52.5%; Toxicity (% positive for DAPI takeup @ 50 μM) ([2]; Table 2): 39.7%
25 | CCCCNc1ncnc2[nH]c(CC)cc12 [Compound 7] |  |  |  |  | Potency at 1 μM F/O toxin [1]: 14.0%; Toxicity (% positive for DAPI take-up @ 50 μM) [2]: 93.4%
26 | FC(F)(F)c1cc2c(NC3CCCc4ccccc43)ncnc2[nH]1 (centres unmarked) [Compound 16] |  |  |  |  | Potency at 1 μM F/O toxin* ([1]; Table 2, % activation of mitophagy at 1.6 μM treatment of the compound): 10.1%; Toxicity (% positive for DAPI takeup @ 50 μM) ([2]; Table 2): 4.5%
27 | c1ccc2c(c1)CC[C@@H]2Nc1ncnc2[nH]cnc12 [Compound 54] | 4.4 µM | 16.2% | 4.38 µM | 16.16% | 
28 | CCCCNc1ncnc2[nH]c(CC(F)(F)F)cc12 [Compound 4] |  |  |  |  | Potency at 1 μM F/O toxin [1]: 13.9%; Toxicity (% positive for DAPI take-up @ 50 μM) [2]: 24.8%
29 | FC(F)(F)c1cc2c(NC3CCCc4ncncc43)ncnc2[nH]1 (centres unmarked) [Compound 45] | > 50 µM | 12.0% | > 25 µM | 11.97% | 
30 | c1ccc(CCNc2ncnc3[nH]cnc23)cc1 [Compound 60] | 2.8 µM | 19.7% | 2.26 µM | 23.09% | 
31 | FC(F)(F)c1cc2c(N[C@H]3CCOc4ccccc43)ncnc2[nH]1 [Compound 42] | 5.6 µM | 37.7% | 5.64 µM | 37.66% | 
32 | COc1ccccc1CNc1ncnc2nc[nH]c12 [Compound 56] | 10.8 µM | 12.4% | 10.8 µM | 12.42% | 
